Assay [1] addresses T1, Glucocorticoid receptor (Homo sapiens) (UniProt P04150).
T1 sequence (whole entry): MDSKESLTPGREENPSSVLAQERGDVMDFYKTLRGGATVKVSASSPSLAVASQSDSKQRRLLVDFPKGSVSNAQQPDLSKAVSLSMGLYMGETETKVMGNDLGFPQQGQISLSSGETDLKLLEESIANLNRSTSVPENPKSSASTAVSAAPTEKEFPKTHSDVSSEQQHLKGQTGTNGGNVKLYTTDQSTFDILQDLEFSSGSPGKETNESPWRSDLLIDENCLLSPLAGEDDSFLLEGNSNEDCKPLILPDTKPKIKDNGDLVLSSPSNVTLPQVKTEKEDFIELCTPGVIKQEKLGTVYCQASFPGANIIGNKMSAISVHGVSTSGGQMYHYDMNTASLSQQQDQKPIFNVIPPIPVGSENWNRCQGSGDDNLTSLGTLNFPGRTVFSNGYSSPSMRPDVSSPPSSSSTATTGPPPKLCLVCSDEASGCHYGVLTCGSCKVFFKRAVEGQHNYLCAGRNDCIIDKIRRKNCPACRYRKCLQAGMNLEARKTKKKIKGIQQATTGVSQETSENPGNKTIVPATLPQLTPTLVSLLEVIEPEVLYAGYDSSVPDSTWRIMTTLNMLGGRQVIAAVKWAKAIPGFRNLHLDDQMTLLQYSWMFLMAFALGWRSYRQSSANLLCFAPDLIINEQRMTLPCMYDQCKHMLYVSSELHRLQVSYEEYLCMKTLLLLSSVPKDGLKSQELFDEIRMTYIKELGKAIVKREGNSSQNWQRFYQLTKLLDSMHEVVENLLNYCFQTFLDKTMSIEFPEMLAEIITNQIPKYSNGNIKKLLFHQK
Kind of assay: (§1) Antagonistic activity against Glucocorticoid receptor in co-transfected CV-1 cell. The assay is classed as functional, cell-based.

The next assay concerns the target T2, Glucocorticoid receptor (Homo sapiens, UniProt P04150).
T2 sequence (P04150 whole entry): T1 sequence (whole entry)
Described as §1. The assay is classed as functional, cell-based.

The term IC50 denotes the concentration that inhibits the measured activity by half.

Some results are limits rather than exact numbers.

On to `CC1(C)CCC[C@]2(C)c3cc4c(C(F)(F)F)cc(O)nc4cc3N[C@H]12`, for which the Efficacy in assay [1] worked out at 31%. At Glucocorticoid receptor, this compound yielded an IC50 of 1.4 µM.

Take `C[C@H]1CC[C@H]2Nc3cc4c(cc3[C@H]2C1)c(C(F)(F)F)cc(=O)n4C`: the Efficacy in assay [1] is less than 20%. Moreover, the IC50 on Glucocorticoid receptor is more than 10 µM.

As for `CN1c2cc3c(cc2[C@H]2CCCC[C@H]21)c(C(F)(F)F)cc(=O)n3C`, the Efficacy in assay [1] is less than 20%. This compound also registered an IC50 on Glucocorticoid receptor of more than 10 µM.

The values above are taken from ChEMBL document CHEMBL1130772, “New nonsteroidal androgen receptor modulators based on 4-(trifluoromethyl)-2(1H)-pyrrolidino[3,2-g] quinolinone” (Bioorg Med Chem Lett, 1998).
